In one data set the target is BCRP (Homo sapiens (Human), UniProt Q9UNQ0). Kind of data set: BCRP MDCKII permeability assay: efflux ratio. To be noted: dog.
Data set [1] is described as follows: MDR1 LLC-PK1 and BCRP MDCKII permeability assay: permeability coefficient (Papp).
Data set [2] deals with full-length FLAG-tagged B-Raf(V600E) (Homo sapiens (Human), UniProt P15056, V600E). Kind of data set: BRAF V600E enzyme assay (TR-FRET competitive displacement of fluorescent tracer). To be noted: averaged IC50; 60 min at ambient temperature; 11-point dosing, top dose 10 μM. In kind it is binding. The text has this:
A competitive displacement assay was configured for B-Raf that monitors the amount of a fluorescently-tagged “tracer” bound to B-Raf via TR-FRET from an anti-tag Eu-labeled antibody also bound to B-Raf.
[formula] • where: • Xmax Average Uninhibited Controls • Xmin Average Background
A 4-parameter logistic model was the fit to the POC data for each compound.

The target in a further data set is P-gp (MDR1) (Homo sapiens (Human), UniProt P08183). Kind of data set: MDR1 LLC-PK1 permeability assay: efflux ratio. To be noted: pig, LLC-PK1.
P-gp (MDR1), sequence (P08183 whole entry, species assumed): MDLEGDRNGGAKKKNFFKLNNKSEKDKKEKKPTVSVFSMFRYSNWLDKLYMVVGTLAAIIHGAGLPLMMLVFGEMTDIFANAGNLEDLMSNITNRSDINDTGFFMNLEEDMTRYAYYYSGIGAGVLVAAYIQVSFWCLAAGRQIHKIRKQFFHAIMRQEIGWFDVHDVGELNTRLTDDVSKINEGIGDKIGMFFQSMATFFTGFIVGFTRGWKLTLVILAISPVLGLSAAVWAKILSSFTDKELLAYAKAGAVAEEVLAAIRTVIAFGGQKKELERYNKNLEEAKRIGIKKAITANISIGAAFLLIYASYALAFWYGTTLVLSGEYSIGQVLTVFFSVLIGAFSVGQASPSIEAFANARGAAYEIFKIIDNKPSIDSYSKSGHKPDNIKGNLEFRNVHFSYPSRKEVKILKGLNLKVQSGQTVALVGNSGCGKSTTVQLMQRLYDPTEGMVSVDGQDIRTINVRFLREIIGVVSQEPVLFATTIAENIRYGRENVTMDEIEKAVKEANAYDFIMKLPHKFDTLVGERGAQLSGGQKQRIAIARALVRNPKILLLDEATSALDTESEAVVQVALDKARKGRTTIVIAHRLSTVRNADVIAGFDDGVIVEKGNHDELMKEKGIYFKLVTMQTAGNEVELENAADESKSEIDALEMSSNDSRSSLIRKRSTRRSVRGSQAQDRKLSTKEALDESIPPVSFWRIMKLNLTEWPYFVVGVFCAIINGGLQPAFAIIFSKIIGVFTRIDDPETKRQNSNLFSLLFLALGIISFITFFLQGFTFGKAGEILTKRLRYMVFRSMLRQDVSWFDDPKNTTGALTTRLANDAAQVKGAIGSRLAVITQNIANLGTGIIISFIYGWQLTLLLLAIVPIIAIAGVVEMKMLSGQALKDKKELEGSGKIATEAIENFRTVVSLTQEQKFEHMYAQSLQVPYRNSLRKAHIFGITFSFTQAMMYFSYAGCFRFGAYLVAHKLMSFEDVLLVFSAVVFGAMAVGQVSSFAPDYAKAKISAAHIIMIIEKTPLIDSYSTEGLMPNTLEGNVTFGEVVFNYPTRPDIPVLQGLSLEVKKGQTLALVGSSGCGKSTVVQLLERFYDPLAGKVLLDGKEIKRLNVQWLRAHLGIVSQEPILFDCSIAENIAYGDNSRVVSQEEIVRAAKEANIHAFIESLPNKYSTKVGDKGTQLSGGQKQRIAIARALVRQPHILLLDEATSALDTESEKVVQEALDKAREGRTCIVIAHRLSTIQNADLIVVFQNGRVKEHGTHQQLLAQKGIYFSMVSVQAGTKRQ

Each structure is given as a SMILES string. pIC50: −log10 of the molar value. Where a name gives a salt, the structure may show the parent alone.

full-length FLAG-tagged B-Raf(V600E), sequence (P15056 whole entry V600E): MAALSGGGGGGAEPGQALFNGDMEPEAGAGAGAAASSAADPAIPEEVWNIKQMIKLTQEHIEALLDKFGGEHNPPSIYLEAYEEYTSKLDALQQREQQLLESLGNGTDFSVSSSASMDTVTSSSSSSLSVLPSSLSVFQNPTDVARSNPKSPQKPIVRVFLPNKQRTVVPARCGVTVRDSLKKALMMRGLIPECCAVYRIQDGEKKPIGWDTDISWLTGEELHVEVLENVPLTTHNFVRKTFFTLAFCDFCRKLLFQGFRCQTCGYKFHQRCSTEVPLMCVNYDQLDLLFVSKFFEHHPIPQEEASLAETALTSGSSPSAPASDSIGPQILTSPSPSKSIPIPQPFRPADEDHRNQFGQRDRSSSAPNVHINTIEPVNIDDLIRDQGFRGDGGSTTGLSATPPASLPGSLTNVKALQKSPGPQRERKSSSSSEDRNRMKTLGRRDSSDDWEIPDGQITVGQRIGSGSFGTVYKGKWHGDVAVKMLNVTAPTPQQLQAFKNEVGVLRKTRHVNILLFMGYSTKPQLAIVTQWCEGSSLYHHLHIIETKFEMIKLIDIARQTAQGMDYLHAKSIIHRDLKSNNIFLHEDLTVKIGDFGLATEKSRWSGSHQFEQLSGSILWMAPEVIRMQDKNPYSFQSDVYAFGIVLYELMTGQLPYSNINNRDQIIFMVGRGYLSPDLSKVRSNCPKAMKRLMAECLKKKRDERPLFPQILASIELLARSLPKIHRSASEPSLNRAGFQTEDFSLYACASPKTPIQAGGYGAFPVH
BCRP, sequence (Q9UNQ0 whole entry, species assumed): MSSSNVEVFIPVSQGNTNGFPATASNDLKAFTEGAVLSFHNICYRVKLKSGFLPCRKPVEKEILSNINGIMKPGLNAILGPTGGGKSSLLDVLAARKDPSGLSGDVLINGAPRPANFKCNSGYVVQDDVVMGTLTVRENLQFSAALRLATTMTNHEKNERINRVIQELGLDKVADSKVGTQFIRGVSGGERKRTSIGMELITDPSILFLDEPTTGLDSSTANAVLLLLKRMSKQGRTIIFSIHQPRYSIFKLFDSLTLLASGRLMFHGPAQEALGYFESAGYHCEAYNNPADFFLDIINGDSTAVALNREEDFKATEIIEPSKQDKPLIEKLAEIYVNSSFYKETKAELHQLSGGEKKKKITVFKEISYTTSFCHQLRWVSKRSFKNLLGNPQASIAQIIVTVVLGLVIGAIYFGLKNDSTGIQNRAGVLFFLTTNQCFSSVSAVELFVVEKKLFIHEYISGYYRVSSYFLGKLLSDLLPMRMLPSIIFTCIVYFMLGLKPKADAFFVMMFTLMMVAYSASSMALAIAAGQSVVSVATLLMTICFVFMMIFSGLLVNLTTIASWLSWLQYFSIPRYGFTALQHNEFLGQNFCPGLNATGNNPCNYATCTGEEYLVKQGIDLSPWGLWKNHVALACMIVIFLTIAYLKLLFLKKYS

By efflux ratio is commonly meant the permeability from basolateral to apical divided by that in the opposite direction, in the common usage. What is called Papp is a coefficient for how fast a substance crosses the barrier. The pIC50 is the IC50 on a negative log10 scale, so that one unit is a factor of ten. Read a low pIC50 as a high IC50. On to `Cc1c(Nc2c(F)ccc(NS(=O)(=O)CCCF)c2F)ccc2ncn(C)c(=O)c12` [Example 2, N-(3-((3,5-dimethyl-4-oxo-3,4-dihydroquinazolin-6-yl)amino)-2,4-difluorophenyl)-3-fluoropropane-1-sulfonamide], for which the figures for the efflux ratio at 2 h, 1 µM on BCRP and on P-gp (MDR1) were 18.6 and 3.92, respectively. This compound also returned a Papp at 2 h, 1 µM in data set [1] of 30.1 ×10⁻⁶ cm/s. Moreover, in data set [2], the negative-log IC50 (pIC50) is 7.85.
In the same order, the values of `CCCS(=O)(=O)Nc1cccc(Nc2ccc3ncn(C)c(=O)c3c2C)c1Cl` [Example 3, N-(2-chloro-3-((3,5-dimethyl-4-oxo-3,4-dihydroquinazolin-6-yl)amino)phenyl)propane-1-sulfonamide] are 0.87, 1.37, 25.8 ×10⁻⁶ cm/s and 7.15.
Regarding `CCCS(=O)(=O)Nc1cc(F)c(F)c(Nc2ccc3ncn(C)c(=O)c3c2C)c1F` [Example 5, N-(3-((3,5-dimethyl-4-oxo-3,4-dihydroquinazolin-6-yl)amino)-2,4,5-trifluorophenyl)propane-1-sulfonamide], the figures for the efflux ratio at 2 h, 1 µM on BCRP and at P-gp (MDR1) were 8.33 and 2.24, respectively. This compound yielded a Papp at 2 h, 1 µM in data set [1] of 26.7 ×10⁻⁶ cm/s. This compound gave a pIC50 in data set [2] of 8.20.
In the case of `Cc1c(Nc2c(F)c(F)cc(NS(=O)(=O)CCCF)c2F)ccc2ncn(C)c(=O)c12` [Example 6, N-(3-((3,5-dimethyl-4-oxo-3,4-dihydroquinazolin-6-yl)amino)-2,4,5-trifluorophenyl)-3-fluoropropane-1-sulfonamide], the efflux ratio at 2 h, 1 µM at BCRP was found to be 25.2; at P-gp (MDR1) it was 4.68. Moreover, in data set [1], the apparent permeability (Papp) at 2 h, 1 µM turned out to be 22.2 ×10⁻⁶ cm/s. In data set [2], this compound had a pIC50 of 8.76.
In the same order, the values of `Cc1c(Nc2c(F)c(F)cc(NS(=O)(=O)CCCF)c2Cl)ccc2ncn(C)c(=O)c12` [Example 8, N-(2-chloro-3-((3,5-dimethyl-4-oxo-3,4-dihydroquinazolin-6-yl)amino)-4,5-difluorophenyl)-3-fluoropropane-1-sulfonamide] are 11.2, 1.61, 27.5 ×10⁻⁶ cm/s and 8.84.
Regarding `Cc1c(Nc2c(F)ccc(NS(=O)(=O)CCCF)c2Cl)ccc2ncn(C)c(=O)c12` [Example 10, N-(2-chloro-3-((3,5-dimethyl-4-oxo-3,4-dihydroquinazolin-6-yl)amino)-4-fluorophenyl)-3-fluoropropane-1-sulfonamide], the apparent permeability (Papp) at 2 h, 1 µM in data set [1] stood at 41 ×10⁻⁶ cm/s.
`[2H]C([2H])([2H])n1cnc2ccc(Nc3c(F)ccc(NS(=O)(=O)CCCF)c3Cl)c(C)c2c1=O` [Example 23, N-(2-chloro-4-fluoro-3-((5-methyl-3-(methyl-d3)-4-oxo-3,4-dihydroquinazolin-6-yl)amino)-phenyl)-3-fluoropropane-1-sulfonamide] had a Papp at 2 h, 1 µM in data set [1] of 39.5 ×10⁻⁶ cm/s.
For the compound `CCCS(=O)(=O)Nc1ccc(F)c(Nc2ccc3ncn(C(C)C)c(=O)c3c2C)c1Cl` [Example 36, N-(2-chloro-4-fluoro-3-((3-isopropyl-5-methyl-4-oxo-3,4-dihydroquinazolin-6-yl)amino)phenyl)propane-1-sulfonamide trifluoroacetate], the efflux ratio at 2 h, 1 µM on BCRP worked out at 1.22; on P-gp (MDR1), 1.17. In data set [2], this compound gave a pIC50 of 7.58.
In the same order, the values of `Cc1c(Oc2c(F)ccc(NS(=O)(=O)CCCF)c2F)ccc2ncn(C)c(=O)c12` [Example 56, N-(3-((3,5-dimethyl-4-oxo-3,4-dihydroquinazolin-6-yl)oxy)-2,4-difluorophenyl)-3-fluoropropane-1-sulfonamide] are 3.14, 2.81 and 7.89.
In the same order, the values of `CCCS(=O)(=O)Nc1nccc(Oc2ccc3ncn(C)c(=O)c3c2C)c1Cl` [Example 57, N-(3-chloro-4-((3,5-dimethyl-4-oxo-3,4-dihydroquinazolin-6-yl)oxy)pyridin-2-yl)propane-1-sulfonamide] are 2.08, 0.91 and 7.02.

Source of the values: US11414404B2, “Compounds for the treatment of BRAF-associated diseases and disorders” (Array BioPharma Inc., priority 2019, dated 2022).
